Assay results: BindingDB's records for doi:10.1021/jm00046a011 (Glaxo Research and Development, 1994)

Target: Squalene synthase (Candida albicans)
Experiment: Compound was tested for in vitro inhibitory activity against Candida albicans 2005E microsomal SQS

## CC(CC[C@]12O[C@H](C(=O)O)[C@@](O)(C(=O)O)[C@](C(=O)O)(O1)[C@H](O)[C@H]2O)C[C@@H](C)Cc1ccccc1 (stereo partly drawn) [(1S,3S,4S,5R,6R,7R)-1-((R)-3,5-Dimethyl-6-phenyl-hexyl)-4,6,7-trihydroxy-2,8-dioxa-bicyclo[3.2.1]octane-3,4,5-tricarboxylic acid]
  IC50: 0.2 µM

## CC[C@H](C)C[C@H](C)CCC(=O)O[C@@H]1[C@@H](O)[C@@]2(CCC(C)[C@H](OC(C)=O)[C@@H](C)Cc3ccccc3)O[C@H](C(=O)O)[C@@](O)(C(=O)O)[C@]1(C(=O)O)O2 (stereo partly drawn) [(1S,3S,4S,5R,6R,7R)-1-((4S,5S)-4-Acetoxy-3,5-dimethyl-6-phenyl-hexyl)-6-((4R,6S)-4,6-dimethyl-octanoyloxy)-4,7-dihydroxy-2,8-dioxa-bicyclo[3.2.1]octane-3,4,5-tricarboxylic acid]
  IC50: 0.007 µM
